One assay concerns SHP1 KO Jurkat T cells. Put plainly: TCR-LCK signaling in SHP1 KO cells. Format: cell-based. Here is the method:
Supernatants from lysed cells were reduced, treated with iodoacetamide to cap thiol residues, and digested by trypsin for bottom‐up proteomics analysis. […] LCK is the direct substrate of SHP1 and ERK1/2, and PLCγ is the downstream effector protein of LCK‐mediated TCR signaling. […] Statistical analyses were performed with Graphpad Prism software 10.4.2 through the one‐way ANOVA test using Turkey post‐hoc comparison. ****p < 0.0001 was considered significant.
To further confirm M029 cellular target engagement, we investigated the effect of M029 on T cell function. SHP1 plays a negative role in T cells, and deletion of SHP1 in T cells lowers the activation threshold and enhances antitumor immunity.^[ [30], [31], [32], [33] ^] Mechanistically, SHP1 attenuates T cell receptor (TCR) signaling via dephosphorylation of the lymphocyte‐specific protein tyrosine kinase LCK.^[ [31], [84], [85], [86] ^] T cell activation leads to increased expression and secretion of interleukin 2 (IL‐2)^[ [87] ^] while the removal of SHP1 in T cells enhances IL‐2 production, cell proliferation, and cytolysis capacity.^[ [30], [32] ^] Accordingly, we sought to assess the impact of targeting SHP1 with M029 on TCR‐LCK signaling and T cell activation. […] M029 also dose‐dependently promoted IL‐2 production (Figure 4c). […]

In assay [1] the test system is MC38 tumor immune infiltrates. The experiment in a line: Flow cytometry of MC38 tumor immune infiltrates. In kind it is in vivo, C57BL/6 mice. Particulars: MC38 tumors. The procedure:
Figure 5 M029 inhibits syngeneic MC38 tumor growth by promoting infiltration and activation of both T cells and NK cells in the tumor microenvironment. […] This T cell activation was further supported by i) the increased effector CD8^+ population in the tumor microenvironment. […] Statistical analyses were performed with Graphpad Prism software 10.4.2 through the student t test or the one‐way ANOVA test using Turkey post‐hoc comparison. *p < 0.05, **p < 0.01, ***p < 0.001, and ****p < 0.0001 were considered significant. Figures are plotted as average ± standard error of the mean (SEM).
To elucidate the mechanism by which M029 elicits its antitumor activity, we analyzed the immune cell population within the tumor samples. […] This observation is in line with earlier reports that SHP1 activity contributes to LAIR1‐mediated T cell exhaustion.^[ [91] ^]
For immune cell profiling in the tumor microenvironment, tumor samples were first reduced to single-cell suspensions by compressing the tumors through a 70 µm filter (Falcon, #352350) into cold 1× PBS supplemented with 5 mM EDTA using the plunger of a syringe (HSW, #4010-200V0). Samples were strained through a second filter and then re-suspended in cold blocking buffer made of 5% BSA, 0.5 mM EDTA, and a 1:1000 dilution of CD16/32. Samples were then incubated with following fluorophore-conjugated antibodies. CD4-488 (Biolegend #100423), CD8a-PE (Biolegend #100708), CD45-PeCy7 (Biolegend #103114), CD25-BV605 (Biolegend #102035), CD44-647 (Biolegend #103039), CD19-488 (Biolegend #115524), NK1.1-647 (Biolegend #108719), CD3-PeCy5 (Biolegend #100273), CD8-BV711 (Biolegend #100747), CD4-PeCy5 (Biolegend #100409), CD69-FITC (Biolegend #104505), FoxP3-488 (Biolegend #126405), Perforin-APC (Biolegend #154303), CD62L-BV605 (Biolegend #104437), TIM3-PerCP/Cy5.5 (Biolegend #134011), PD1-647 (Biolegend #109118), CD11b-BV711 (Biolegend #101241), CD206-FITC (Biolegend #141704), F4/80-647 (Biolegend #123122), CD86-PE (Biolegend #159203), CD11c-BV421 (Biolegend #117329), Ly6G-488 (Biolegend #127625), CD11b-APC (Biolegend #101211), Ly6C-PE (Biolegend #128007), F4/80-BV711 (Biolegend #123147), IL2-BV421 (Biolegend #503825), IFNγ-BV605 (Biolegend #505839), TNFα-APC (Biolegend #506307). The following antibodies were used for depletion studies: anti-CD8α (BioXCell #BE0061) and anti-NK1.1 (BioXCell #BE0036). Samples were incubated with antibodies at a 1:600 dilution in blocking buffer on ice for two hours. After staining, samples were washed and re-suspended in 5% BSA, 0.5 mM EDTA solution, then added to a 5 mL polystyrene tube for analysis (Falcon, #352235). Sample data was acquired using a BD LSRFortessa Cell Analyzer, and results were analyzed using FlowJo.

Entries after “also recorded” stand apart in the source; their conditions may differ.

We go through one molecule from publication PMC12833730, “Discovery of a First‐in‐Class Covalent Allosteric SHP1 Inhibitor with Immunotherapeutic Activity” (Angewandte Chemie (International Ed. in English), 2025).

Take `N#Cc1ccsc1NS(=O)(=O)c1ccc(NC(=O)CCl)cc1` [M029, 2-Chloro-N-(4-(N-(3-cyanothiophen-2-yl)sulfamoyl)phenyl)acetamide]: the “LCK, PLCγ, and ERK1/2 phosphorylation in SHP1-deleted cells” value with SHP1 KO Jurkat T cells was “abolished; also recorded: unable to alter”. In assay [1], the “late exhaustion T cells (PD1+TIM3+)” value is recorded as “a decline” and the “pre-exhausted PD1+TIM3− T cells” value is reported as “increased”. In assay [1] (25 mg/kg), the “activation marker CD25 on infiltrating CD8+ T cells” value is “higher expression”, the “activation of tumor-infiltrating NK cells (CD69)” value is reported as “significantly more activated”, the “cytotoxicity marker perforin on infiltrating CD8+ T cells” value is “higher expression” and the “effector markers CD44+CD62L− on infiltrating CD8+ T cells” value is on record as “higher expression”. Also, in assay [1] (25 mg/kg), the “infiltration of cytotoxic CD8+ T cells” value is on record as “increased infiltration”. In addition, in assay [1] (25 mg/kg, vs control), the “increase of CD3+ T cells in tumor” value was approximately 33% and the “increase of NK1.1+ NK cells in tumor” value is approximately 100%.
